# Like-named read-outs stand apart in the source and are kept apart here.
# Columns and labels:
# Type in all cases: in vivo
# [1] = test system: barnyardgrass (Echinochloa crus-galli); assay: Test A greenhouse herbicide test, pre- and postemergence; conditions: Echinochloa crus-galli, 240 h; for pest or weed control at 125 g/ha: 125 g ai/ha; for pest or weed control at 500 g/ha: 500 g ai/ha, 0 to 100 scale
# How it was run: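 Visual injury ratings, 0 (no effect) to 100 (complete control), versus untreated plants after roughly 10 d in a greenhouse. Compounds, formulated in a surfactant-containing non-phytotoxic solvent, were sprayed on loam–sand soil after sowing (pre) or on one- to two-leaf plants 2–10 cm tall (post).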
# [2] = test system: lambsquarters (Chenopodium album); assay: Test C greenhouse herbicide test, pre- and postemergence
# How it was run: (§1)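 Percent-control ratings (0 none, 100 complete) came from visual comparison with controls held alongside in the greenhouse for 13–15 d. Treatments covered soil application at sowing and foliar application to young plants 2–18 cm tall.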
# [3] = test system: johnsongrass (Sorghum halepense); assay: as above
# How it was run: as §1
# [4] = test system: foxtail, giant (giant foxtail, Setaria faberii); assay: as above
# How it was run: as §1
# [5] = test system: crabgrass, large (large crabgrass, Digitaria sanguinalis); assay: as above
# How it was run: as §1
# [6] = test system: morningglory (Ipomoea coccinea); assay: as above
# How it was run: as §1
# corn (Zea mays) = assay: as above
# How it was run: as §1
# [7] = test system: wheat (winter wheat, Triticum aestivum); assay: as above
# How it was run: as §1
# [8] = test system: oilseed rape (Brassica napus); assay: as above
# How it was run: as §1
# [9] = test system: waterhemp (common waterhemp, Amaranthus rudis); assay: as above
# How it was run: as §1
# [10] = Postemergence, 31 g ai/ha, 0 to 100 scale (0 no effect, 100 complete control)
# [11] = Postemergence, 125 g ai/ha, scale 0 to 100, 0 is no effect, 100 is complete control
# [12] = Postemergence, 250 g ai/ha, scale 0 to 100, 0 no effect, 100 complete control, 13 to 15 d
# [13] = Preemergence, 31 g ai/ha, scale 0 to 100, 0 is no effect, 100 is complete control
# [14] = Preemergence, 62 g ai/ha, scale 0 to 100, 0 is no effect, 100 is complete control
# [15] = Preemergence, 125 g ai/ha, scale 0 to 100, 0 is no effect, 100 is complete control
# [16] = Preemergence, 250 g ai/ha, scale 0 to 100, 0 no effect, 100 complete control
# [17] = postemergence, 62 g ai/ha, scale 0 to 100, 0 no effect, 100 complete control
compound,measurement,setting,value
"Cc1cc(C)c2sc(C)c(-c3c(O)c(C)nn(C)c3=O)c2c1 [Compound 2, 5-hydroxy-2,6-dimethyl-4-(2,5,7-trimethylbenzo[b]thien-3-yl)-3(2H)-pyridazinone]",pest or weed control at 125 g/ha,"[1]; post-emergence, Postemergence, visual rating after approx. 10 d, 0 to 100 scale (0 no effect, 100 complete control), read-out: Plant response rating, Barnyardgrass",30%
same,pest or weed control at 500 g/ha,"[1]; post-emergence, Postemergence, 0 is no effect, 100 is complete control, read-out: Barnyardgrass plant response rating",80%
same,pest or weed control at 125 g/ha,"[1]; pre-emergence, Preemergence, 0 to 100 scale where 0 is no effect and 100 is complete control, read-out: Barnyardgrass plant response rating",50%
same,pest or weed control at 500 g/ha,"[1]; pre-emergence, Preemergence, 0 no effect, 100 complete control, read-out: Plant response rating, Barnyardgrass",80%
same,Lambsquarters plant response rating,[2]; [10],85
same,"Plant response rating, Lambsquarters",[2]; [11],98
same,"Plant response rating, Lambsquarters",[2]; [12],100
same,"Plant response rating, Lambsquarters",[2]; [13],100
same,"Plant response rating, Lambsquarters",[2]; [14],100
same,"Plant response rating, Lambsquarters",[2]; [15],100
same,Lambsquarters plant response rating,[2]; [16],100
same,Lambsquarters plant response rating,[2]; [17],85
same,Johnsongrass plant response rating,[3]; [10],5
same,"Plant response rating, Johnsongrass",[3]; [11],5
same,"Plant response rating, Johnsongrass",[3]; [12],5
same,"Plant response rating, Johnsongrass",[3]; [13],0
same,"Plant response rating, Johnsongrass",[3]; [14],0
same,"Plant response rating, Johnsongrass",[3]; [15],5
same,Johnsongrass plant response rating,[3]; [16],5
same,Johnsongrass plant response rating,[3]; [17],5
same,"Foxtail, Giant plant response rating",[4]; [10],20
same,"Plant response rating, Foxtail, Giant",[4]; [11],90
same,"Plant response rating, Foxtail, Giant",[4]; [12],95
same,"Plant response rating, Foxtail, Giant",[4]; [13],80
same,"Plant response rating, Foxtail, Giant",[4]; [14],100
same,"Plant response rating, Foxtail, Giant",[4]; [15],98
same,"Foxtail, Giant plant response rating",[4]; [16],100
same,"Foxtail, Giant plant response rating",[4]; [17],65
same,"Crabgrass, Large plant response rating",[5]; [10],10
same,"Plant response rating, Crabgrass, Large",[5]; [11],15
same,"Plant response rating, Crabgrass, Large",[5]; [12],10
same,"Plant response rating, Crabgrass, Large",[5]; [13],55
same,"Plant response rating, Crabgrass, Large",[5]; [14],55
same,"Plant response rating, Crabgrass, Large",[5]; [15],98
same,"Crabgrass, Large plant response rating",[5]; [16],95
same,"Crabgrass, Large plant response rating",[5]; [17],15
same,Morningglory plant response rating,[6]; [10],100
same,"Plant response rating, Morningglory",[6]; [11],100
same,"Plant response rating, Morningglory",[6]; [12],100
same,"Plant response rating, Morningglory",[6]; [13],98
same,"Plant response rating, Morningglory",[6]; [14],100
same,"Plant response rating, Morningglory",[6]; [15],98
same,Morningglory plant response rating,[6]; [16],100
same,Morningglory plant response rating,[6]; [17],100
same,Corn plant response rating,corn (Zea mays); [10],0
same,"Plant response rating, Corn",corn (Zea mays); [11],5
same,"Plant response rating, Corn",corn (Zea mays); [12],10
same,"Plant response rating, Corn",corn (Zea mays); [13],0
same,"Plant response rating, Corn",corn (Zea mays); [14],0
same,"Plant response rating, Corn",corn (Zea mays); [15],0
same,Corn plant response rating,corn (Zea mays); [16],10
same,Corn plant response rating,corn (Zea mays); [17],5
same,Wheat plant response rating,[7]; [10],0
same,"Plant response rating, Wheat",[7]; [11],5
same,"Plant response rating, Wheat",[7]; [12],5
same,"Plant response rating, Wheat",[7]; [14],0
same,"Plant response rating, Wheat",[7]; [15],0
same,Wheat plant response rating,[7]; [16],10
same,Wheat plant response rating,[7]; [17],0
same,Oilseed Rape plant response rating,[8]; [10],65
same,"Plant response rating, Oilseed Rape",[8]; [11],70
same,"Plant response rating, Oilseed Rape",[8]; [12],75
same,"Plant response rating, Oilseed Rape",[8]; [13],0
same,"Plant response rating, Oilseed Rape",[8]; [14],20
same,"Plant response rating, Oilseed Rape",[8]; [15],65
same,Oilseed Rape plant response rating,[8]; [16],65
same,Oilseed Rape plant response rating,[8]; [17],70
same,Waterhemp plant response rating,[9]; [10],65
same,"Plant response rating, Waterhemp",[9]; [11],85
same,"Plant response rating, Waterhemp",[9]; [12],100
same,"Plant response rating, Waterhemp",[9]; [14],100
same,"Plant response rating, Waterhemp",[9]; [15],100
same,Waterhemp plant response rating,[9]; [16],100
same,Waterhemp plant response rating,[9]; [17],65

# From patent publication US10597388B2, “Pyridazinone herbicides” (FMC CORPORATION, priority 2014, dated 2020)
